Data on four compounds can be found in patent US12595236B2, “Pyrimidine-2,4-diamine compound and preparation method and application thereof” (ANHUI MEDICAL UNIVERSITY, priority 2021, dated 2026).

Data set [1] has as its target human recombinant cathepsin C (Homo sapiens, UniProt P53634). The data set can be described thus: In vitro inhibitory effect on human recombinant cathepsin C (h-gly-arg-amc substrate). To be noted: human recombinant cathepsin C 2 nM, 30 min preincubation at 25° C., substrate 100 μM; read-out: CatC IC50. Format: biochemical.
Data set [2] has as its target T1, intracellular cathepsin C in THP-1 cells (Homo sapiens, UniProt P53634).
T1 construct: endogenous in cells; host or cells: THP-1
The data set can be described thus: In vitro inhibitory effect on intracellular cathepsin C in THP-1 cells. Format: cell-based. As to conditions: 1 h incubation at 37° C., h-gly-arg-amc 200 μM, read-out: THP-1 CatC IC50.

Data set [3] has as its target T2, intracellular cathepsin C in U937 cells (Homo sapiens, UniProt P53634).
T2 construct: endogenous in cells; host or cells: U937
The data set can be described thus: In vitro inhibitory effect on intracellular cathepsin C in U937 cells. To be noted: 1 h incubation at 37° C., h-gly-arg-amc 200 μM, read-out: U937 CatC IC50. Format: cell-based.

Data set [4] can be described thus: In vivo acute toxicity evaluation. To be noted: mouse, ICR mice, oral, 1500 mg/kg at one time, observed one week. The text has this: (§1) In Vivo Acute Toxicity Evaluation:
(§2) The mice were randomly divided into two groups and subjected to adaptive feeding for one week. […] The body weight, mortality and behavior of the mice were observed and recorded daily for one week. Subsequently, the mice were anesthetized and the tissues were used for HE staining.

Data set [5] has as its system ICR mice. The data set can be described thus: In vivo acute toxicity evaluation. To be noted: mouse, po, 1500 mg/kg.
Excerpt: as §1, §2

In data set [6] the test system is cathepsin C and NSPs. The experiment in a line: Test of in vivo inhibition of cathepsin C and NSPs in normal mice. As to conditions: C57BL/6 mice, oral 5, 15, 45 mg/kg for 6 days; bone marrow and blood; dose-dependent. How it is done: Test of In Vivo Inhibition of Cathepsin C and NSPs.
C57BL/6 mice (half sex, about 20 g, purchased from the Department of Animal Science of Anhui Medical University) were randomly divided into four groups (N=6). […] Mice in the control group were administered with the same amount of normal saline twice a day for 6 days. At the end, bone marrow and blood were drawn to analyze the activity of cathepsin C and NSPs. Bone marrow and blood lysates were added to a 384-well plate. A synthetic peptide substrate was used to analyze the activity of NSPs and cathepsin C.

Data set [7] deals with COPD rat model. The data set can be described thus: In vivo anti-inflammatory activity assessment, COPD model (fumigation and LPS). Further details: species or system rats. To be noted: oral 5, 15, 45 mg/kg twice a day. How it is done: In Vivo Anti-Inflammatory Activity Assessment:
(§3) A combination of fumigation and LPS (Sigma) was used. […] Except for the negative control group, all rats were exposed to cigarette smoke (XIONGSHI) for 45 min in each day from day 1 to day 13 and day 15 to day 30, subjected to tracheal instillation of LPS ([…]) on day 0 (start point of the study), and subjected to tracheal instillation of LPS ([…]) on day 14. The body weight was recorded every three days, and the behavior, coat color and breathing were observed daily. On day 31, the animals were euthanized with an overdose of chloral hydrate. Subsequently, lung, bronchoalveolar lavage fluid (BALF), blood, bone marrow samples were collected and stored at −80° C. until being detected. The levels of cathepsin C and NSP were detected with previously described methods, and cytokine levels in all samples were analyzed by ELISA kits (MULTI SCIENCES).

For data set [8], the system named is cathepsin C and downstream NSPs. The data set can be described thus: Cathepsin C and NSP levels in COPD model. Format: in vivo. To be noted: COPD rats, oral 5, 15, 45 mg/kg twice a day; bone marrow, blood, lung, and BALF; dose-dependent. The procedure:
as §3

Data set [9] deals with cytokines (IFN-γ, IL-1β, IL-6, IL-17, TNF-α, GM-CSF, IL-10). The data set can be described thus: Cytokine levels in COPD model by ELISA. As to conditions: COPD rats; bone marrow, blood, lung, and BALF; dose-dependent. Format: in vivo. How it is done:
as §3
On the technique in general: An ELISA detects its analyte on a solid surface through an enzyme-linked reagent.

T1 sequence (P53634 25-463): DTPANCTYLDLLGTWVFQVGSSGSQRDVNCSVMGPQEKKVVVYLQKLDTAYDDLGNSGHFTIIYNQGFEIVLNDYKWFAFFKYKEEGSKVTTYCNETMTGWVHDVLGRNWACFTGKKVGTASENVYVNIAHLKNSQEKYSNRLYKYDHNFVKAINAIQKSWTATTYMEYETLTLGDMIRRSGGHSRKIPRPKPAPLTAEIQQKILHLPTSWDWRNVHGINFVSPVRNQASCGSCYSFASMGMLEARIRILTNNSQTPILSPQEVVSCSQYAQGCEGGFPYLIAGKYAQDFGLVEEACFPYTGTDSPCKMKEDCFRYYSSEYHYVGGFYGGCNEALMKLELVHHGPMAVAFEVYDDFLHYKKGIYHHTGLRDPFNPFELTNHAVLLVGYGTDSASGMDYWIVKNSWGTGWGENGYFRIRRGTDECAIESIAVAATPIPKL
T2 sequence (P53634 25-463): as above
human recombinant cathepsin C, sequence (P53634 25-463): as above

As a reminder, the IC50 is the concentration at which inhibition is half-maximal. Consider “5-chloro-N^2-(5-(4-(dimethylamino)phenyl)pyridin-2-yl)-N^4-(3-(trifluoromethyl)phenyl)pyrimidine-2,4-diamine [Compound 61]”, for which the IC50 in data set [1] amounted to 305.3 ± 2.7 nM; in [2], 278.2 ± 1.2 nM; in data set [3], 377.5 ± 0.9 nM.

One may read the LD50 as the dose expected to kill half of the subjects tested. The low end stands for a more toxic substance, the high end for a less toxic substance. For the compound `CN1CCN(c2ccc(Nc3ncc(Cl)c(Nc4cccc(C(F)(F)F)c4)n3)nc2)CC1` [Compound 41, 5-chloro-N^2-(5-(4-methylpiperazin-1-yl)pyridin-2-yl)-N^4-(3-(trifluoromethyl)phenyl)pyrimidine-2,4-diamine], the 50% lethal dose (LD50) at 1 week in data set [4] is > 1500 mg/kg. Also, the “pathological changes in tissues and organs (HE staining)” value in data set [5] is “no pathological changes were found”. The “cathepsin C activity and downstream NSP activation” value in data set [6] and in data set [8] was “decreased obviously” each time. In [7] (COPD rat model), the “histopathological changes of lung tissue (H&E staining)” value is “ameliorated these histopathological changes in an obvious dose-dependent manner”. Besides, in data set [7] (COPD rats), the body weight entry was “lost their weight slowly and gained weight slightly after about 20 days”. For the same compound, the “pulmonary inflammation and systemic inflammation” value in data set [7] (COPD rats, 28 days, compared with the model group) is “significantly less suffered from pulmonary inflammation and systemic inflammation”. For the same compound, the IL-10 level result in data set [9] is “increased cytokines (IL-10) in a dose-dependent manner”. The “level of pro-inflammatory cytokines (IFN-γ, IL-1β, IL-6, IL-17, TNF-α, and GM-CSF)” value in data set [9] is “decreased level of pro-inflammatory cytokines”.

As to `CCCCN1CCN(c2ccc(Nc3ncc(Cl)c(Nc4cccc(C(F)(F)F)c4)n3)nc2)CC1` [Compound 48, N^2-(5-(4-butylpiperazin-1-yl)pyridin-2-yl)-5-chloro-N^4-(3-(trifluoromethyl)phenyl)pyrimidine-2,4-diamine], the IC50 in [2] is 240.5 ± 1.2 nM; in data set [3], 199 ± 2.03 nM.

For `CON1CCN(c2ccc(Nc3ncc(C)c(Nc4cccc(C(F)(F)F)c4)n3)nc2)CC1` [Compound 67, 5-methyl-N^2-(5-(4-methoxypiperazin-1-yl)pyridin-2-yl)-N^4-(3-(trifluoromethyl)phenyl)pyrimidine-2,4-diamine], the IC50 in data set [1] was 167 ± 2.01 nM; in [2], 139.8 ± 1.03 nM; in [3], 156 ± 2.13 nM.
